# How the values were obtained:
# [1] = tested on: Ai14 reporter genomic locus; assay: In vivo AAV8.Xon.SaCas9 editing of Ai14 reporter locus in liver; settings: Ai14 mice, PCR and tdTomato expression
# Description: To assess the applicability of Xon for liver targeted therapies, AAV8.Xon.Epo and AAV8.Xon.SaCas9 vectors were generated and delivered to C57Bl6 and Ai14 reporter mice, respectively (FIGS. 7A, 7C, 7F).
# SMN2-on minigene = assay: SMN2-on cassette Firefly luciferase reporter assay in transfected HEK293 cells; format: cell-based, Human
# Protocol: Cell culture, transfection, and LMI070/RG7800 treatment. Human embryonic kidney (HEK293) cells (obtained from CHOP Research Vector Core stock) were maintained in DMEM media containing 10% Fetal Bovine Serum (FBS), 1% L-Glutamine and 1% penicillin/streptomycin at 37° C. with 5% CO2. Cells were cultured in 24 well plates and transfected at 80-90% confluence using Lipofectamine 2000 transfection reagent, according to the manufacturer’s protocol. For all experiments, 4 hours after plasmid transfection, cells were treated with LMI070 (MedChemExpress, HY-19620, suspended in DMSO) or RG7800 (MedChemExpress, HY-101792A, suspended in H2O) at the indicated concentrations. Cells were tested for mycoplasma by Research Vector Core. None of the cells used in the study were listed in ICLAC database of commonly misidentified cell lines.
# In vitro luciferase assays. HEK293 cells were cultured in DMEM (10% FBS (v/v), 1% Pen/ Strep (v/v), and 1% L-glutamine (v/v) in a 24-well plate. At 70%-80% confluence, cells were co-transfected with the Xon.Firefly luciferase cassettes (0.3 µg/well) and a SV40p-Renilla luciferase cassette as transfection control (0.02 µg/well). Four hours after transfections cells were treated either with LMI070 or RG7800 at indicated concentrations. At 24 h after transfection, cells were rinsed with ice-cold PBS and Renilla and Firefly luciferase activities were assessed using the Dual-Luciferase Reporter Assay System (Promega) according to the manufacturer’s instructions. Luminescent readouts were obtained with a Monolight 3010 luminometer (Pharmigen). Relative light units (RLUs) were calculated as the quotient of […] RLUs and results expressed relative to mock treated control cells.
# For this, SMN2-on cassettes were generated to provide drug-induced reporter gene expression. HEK293 cells were transfected with the SMN2-on expression cassettes and luciferase activity evaluated in response to varying doses of LMI070 or RG7800. […]
# HEK293 cells = assay: Differential gene expression analysis (DESeq2) of LMI070 vs DMSO treated HEK293 cells; format: cell-based, Human
# Protocol: Differential gene expression analysis was performed using DESeq2 to compare samples from the LMI070 and DMSO conditions (Love et al., 2014). To visualize the abundance of meaningfully differentially expressed genes, a volcano plot was generated with a .05 Benjamini-Hochberg adjusted p-value threshold and a 0.1 log fold change threshold.
# The pseudoexons identified in LMI070 treated samples share a strong 3′ AGAGUA motif consistent with the previously identified U1 RNA binding site targeted by LMI070 (FIG. 2C) (Cheung et al., 2018). To experimentally validate the identified LMI070 induced splicing events, primer pairs binding the flanking exons of the top 5 candidate genes (FIGS. 2A and 2F-2J) were generated. […] The impact of LMI070 treatment on global gene expression was evaluated by assessing differential expression analysis.
# [2] = p < 0.05, Benjamin-Hochberg correction, LMI070 vs DMSO
compound,measurement,setting,value
"CC1(C)CC(Oc2ccc(-c3ccc(-c4cn[nH]c4)cc3O)nn2)CC(C)(C)N1 [LMI070, 5-(1H-Pyrazol-4-yl)-2-(6-((2,2,6,6-tetramethylpiperidin-4-yl)oxy)pyridazin-3-yl)phenol]",editing of the Ai14 reporter genomic locus (liver),[1],only observed on mice injected with AAV8.Xon.SaCas9 virus and treated with LMI070
same,luciferase activity from the SMN2-on minigene,"SMN2-on minigene; HEK293 cells, varying doses",induced luciferase activity
same,"overall induction of luciferase, refined SMN2-on switch system","SMN2-on minigene; indSMN2 cassette, relative to DMSO treated cells (FIG. 1E: LMI070 100 nM)",approximately 20 fold
same,downregulated genes after filtering out low fold-change values,HEK293 cells; filtered <0.1 fold,9
same,upregulated genes after filtering out low fold-change values,HEK293 cells; filtered <0.1 fold,5
same,downregulated genes passing the threshold for significance,HEK293 cells; [2],24
same,upregulated genes passing the threshold for significance,HEK293 cells; [2],6

# — patent publication US20230340498A1, “COMPOSITIONS AND METHODS FOR INDUCIBLE ALTERNATIVE SPLICING REGULATION OF GENE EXPRESSION” (The Children's Hospital of Philadelphia, priority 2020, published 2023)
